Reference: patent US20150065440A1 (Progen Pharmaceuticals Limited, priority 2007, published 2015)

Tests used:
[1] = molecular target: T1, recombinant human heparanase (Homo sapiens, UniProt Q9Y251); assay: Heparanase inhibition assay (fondaparinux cleavage, WST-1); settings: read-out: Ki Heparanase; IC50 converted into Ki; fondaparinux 100 μM, pH 5.0
T1 sequence (Q9Y251 158-543 limits assumed): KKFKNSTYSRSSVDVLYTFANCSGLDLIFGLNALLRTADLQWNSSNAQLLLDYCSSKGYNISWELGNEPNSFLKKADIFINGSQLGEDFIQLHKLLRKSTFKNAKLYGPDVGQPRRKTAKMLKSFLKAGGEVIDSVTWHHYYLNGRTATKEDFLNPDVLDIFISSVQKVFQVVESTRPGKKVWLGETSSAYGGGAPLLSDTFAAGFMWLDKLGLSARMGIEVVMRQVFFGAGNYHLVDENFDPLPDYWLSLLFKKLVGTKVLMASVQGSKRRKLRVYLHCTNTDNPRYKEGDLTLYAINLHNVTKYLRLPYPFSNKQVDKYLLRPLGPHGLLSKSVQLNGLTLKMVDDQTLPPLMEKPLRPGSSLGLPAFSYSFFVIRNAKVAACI
T1 sequence (Q9Y251 36-109 limits assumed): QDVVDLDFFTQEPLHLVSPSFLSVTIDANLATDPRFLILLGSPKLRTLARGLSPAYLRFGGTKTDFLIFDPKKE
Procedure: In the presence of an inhibitor the catalytic activity of heparanase is reduced, and the amount of disaccharide produced and the optical density of the solution are both decreased. The percent inhibition and IC50 of the inhibitor are determined from measurement of the optical density (OD) over a range of inhibitor concentrations.
Assays were carried out in 40 mM sodium acetate buffer, pH 5.0, as follows. […] A blue colour was developed by incubation of the plates at 60° C. for 60 min. […] The IC50 value for each compound was evaluated and converted into a Ki (inhibition constant) using the expression

FGF-1 = FGF-1 (Homo sapiens, UniProt P05230); assay: Growth factor binding assay (SPR solution affinity), FGF-1; settings: SPR, HBS-EP buffer, 25° C.; read-out: Kd FGF-1
FGF-1, sequence (P05230 whole entry, species assumed): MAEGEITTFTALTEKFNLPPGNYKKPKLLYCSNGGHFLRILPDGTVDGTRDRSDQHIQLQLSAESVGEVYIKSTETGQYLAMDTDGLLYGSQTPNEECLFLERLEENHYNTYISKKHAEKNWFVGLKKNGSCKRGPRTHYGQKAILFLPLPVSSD

FGF-2 = FGF-2 (Homo sapiens, UniProt P09038); assay: Growth factor binding assay (SPR solution affinity), FGF-2; settings: SPR, HBS-EP buffer containing 0.3 M NaCl, 25° C.; read-out: Kd FGF-2
FGF-2, sequence (P09038 143-288, species assumed): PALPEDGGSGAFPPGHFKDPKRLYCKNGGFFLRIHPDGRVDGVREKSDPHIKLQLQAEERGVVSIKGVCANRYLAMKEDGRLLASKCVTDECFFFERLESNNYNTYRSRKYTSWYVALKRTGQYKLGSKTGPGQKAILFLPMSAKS
How it was run: (§1)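 Kd measured by SPR solution affinity: fixed growth factor with varying ligand competing for heparin-coated sensorchip, 25 °C. Buffer HBS-EP pH 7.4 (150 mM NaCl) for FGF-1 and VEGF; FGF-2 with 0.3 M NaCl. Duplicate values averaged.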

RSV = assay: Viral plaque number-reduction assay, RSV; settings: human respiratory syncytial virus, read-out: RSV IC50
Procedure: African green monkey kidney (GMK AH1) cells^46 were cultured in Eagle's minimum essential medium (EMEM) supplemented with 2% calf serum, 0.05% Primaton RL substance (Kraft Inc., Norwich, USA) and antibiotics. Human epidermoid carcinoma (HEp-2) cells were cultured in Dulbecco's modified EMEM (DMEM) supplemented with 10% fetal calf serum and antibiotics. […] The RSV strain A-2^50 was used. The RSV stock was prepared as described by Hallak et al.^51 and stored at −70° C. in the presence of 40% sucrose^52.
The viral infectivity (the plaque number-reduction) assay and the plaque size-reduction assay were carried out as described previously^17. […] Subsequently, the cells were washed with 2 mL of EMEM and overlaid with 1% methylcellulose solution in EMEM. The plaques were visualized by staining with crystal violet solution after 2 (HSV-2) or 3 (HSV-1) days of incubation at 37° C. […] When the compounds were screened for anti-HSV or anti-RSV activity, mixtures of 200 PFU of the virus and the test compound (100 μg/mL) in serum-free EMEM were incubated for 10 min at room temperature before addition to cells and during the entire period of viral infection of cells and the development of viral plaques. In the plaque size-reduction assay, the compounds were added to cells (in methylcellulose overlay medium) after 2 h period of virus infection of cells in the absence of the inhibitor. After 2-3 days of incubation at 37° C., the viral plaques were visualized by staining the cells with 1% solution of crystal violet. For each compound tested, the images of twenty neighboring plaques were captured using a Leica DC300 digital camera attached to a Leitz-Wetzlar Diavert microscope. The area of each plaque was determined using IM500 image software (Leica). Similar protocols were used for RSV, except that the assays were performed in HEp-2 cells and DMEM supplemented with 2% heat-inactivated fetal calf serum was used instead of EMEM.

[2] = test system: normal pooled human plasma; assay: Anticoagulant activity, Heptest; settings: 0.1 mg/mL in normal pooled human plasma
VEGF = molecular target: T2, VEGF (Homo sapiens, UniProt P15692); assay: Growth factor binding assay (SPR solution affinity), VEGF; settings: HBS-EP buffer, 25° C.
T2 sequence (P15692 207-395): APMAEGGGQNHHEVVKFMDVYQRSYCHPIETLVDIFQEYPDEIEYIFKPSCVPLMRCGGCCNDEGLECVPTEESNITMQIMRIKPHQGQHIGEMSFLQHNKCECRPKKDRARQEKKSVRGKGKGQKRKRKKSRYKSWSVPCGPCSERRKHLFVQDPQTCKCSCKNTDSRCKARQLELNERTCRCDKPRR
How it was run: as §1

[3] = test system: pooled normal human plasma; assay: Anticoagulant activity, APTT; settings: 0.1 mg/mL in normal pooled human plasma
Procedure: APTT measurements were performed on a STAGO STA-Compact Coagulation Analyser using standard protocols according to the manufacturer's instructions. Unfractionated heparin (UFH) was used as a control.

HSV-2 = assay: Viral plaque number-reduction assay, HSV-2; settings: Human alphaherpesvirus 2, read-out: HSV-2 IC50
How it was run: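 200 PFU virus premixed 10 min with compound (100 μg/mL screen) and kept throughout infection. HSV plaques in GMK AH1 cells, RSV (strain A-2) in HEp-2 cells. Methylcellulose overlay, 37 °C, crystal violet staining after 2 days (HSV-2) or 3 days (HSV-1); plaque numbers counted.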

Ki [1]: 9.1 ± 0.3 nM | Kd (FGF-1): 4.94 ± 0.08 nM | Kd (FGF-2): 311 ± 25 nM | IC50 (RSV): 1.4 µg/mL | Kd (VEGF): 14 ± 4 nM | IC50 (HSV-2): 1 µg/mL
Structure (SMILES): CCCCCCCCCCCCCCCCCC(=O)NCCCO[C@@H]1O[C@H](COS(=O)(=O)[O-])[C@@H](O[C@H]2O[C@H](COS(=O)(=O)[O-])[C@@H](O[C@H]3O[C@H](COS(=O)(=O)[O-])[C@@H](O[C@H]4O[C@H](COS(=O)(=O)[O-])[C@@H](OS(=O)(=O)[O-])[C@H](OS(=O)(=O)[O-])[C@H]4OS(=O)(=O)[O-])[C@H](OS(=O)(=O)[O-])[C@H]3OS(=O)(=O)[O-])[C@H](OS(=O)(=O)[O-])[C@H]2OS(=O)(=O)[O-])[C@H](OS(=O)(=O)[O-])[C@H]1OS(=O)(=O)[O-].[Na+].[Na+].[Na+].[Na+].[Na+].[Na+].[Na+].[Na+].[Na+].[Na+].[Na+].[Na+].[Na+] [Compound 128, 3-Stearamidopropyl 2,3,4,6-tetra-O-sulfo-α-D-glucopyranosyl-(1→4)-2,3,6-tri-O-sulfo-α-D-glucopyranosyl-(1→4)-2,3,6-tri-O-sulfo-α-D-glucopyranosyl-(1→4)-2,3,6-tri-O-sulfo-β-D-glucopyranoside, tridecasodium salt]
Heptest [2]: 32.2 s | APTT [3]: 65.8 s
